Source: patent publication US4069318A, “N^2 -Alkoxynaphthalenesulfonyl-L-argininamides and the pharmaceutically acceptable salts thereof” (Mitsubishi Chemical Industries Ltd., priority 1974, dated 1978)

tested on: not listed separately; assay: acute toxicity (LD50) by intraperitoneal administration in mice; conditions: mouse, in vivo, ip, mice (male, 20 g)
Source text: On the other hand, LD50 values for N^2 -dansyl-N-butyl-L-argininamide and N^2 -dansyl-N-methyl-N-butyl-L-argininamide are 75 and 70 milligrams per kilogram, respectively.

Structure (SMILES)	LD50
CCCCN(C)C(=O)[C@H](CCCNC(=N)N)NS(=O)(=O)c1cccc2c(N(C)C)cccc12 [N^2 -dansyl-N-methyl-N-butyl-L-argininamide, reference compound]	70 mg/kg
COc1cc2ccc(S(=O)(=O)N[C@@H](CCCNC(=N)N)C(=O)N(CC(=O)O)Cc3ccccc3)cc2cc1OC [Sample 2, N^2-(6,7-dimethoxy-2-naphthalenesulfonyl)-L-arginyl-N-benzylglycine]	> 1000 mg/kg
COc1cc2ccc(S(=O)(=O)N[C@@H](CCCNC(=N)N)C(=O)N(CCc3ccccc3)CC(=O)O)cc2cc1OC [Sample 6, N^2-(6,7-dimethoxy-2-naphthalenesulfonyl)-L-arginyl-N-phenethylglycine]	> 1500 mg/kg
COc1cccc2c(S(=O)(=O)N[C@@H](CCCNC(=N)N)C(=O)N(CC(=O)O)Cc3ccccc3)cccc12 [Sample 18, N^2-(5-methoxy-1-naphthalenesulfonyl)-L-arginyl-N-benzylglycine]	> 1000 mg/kg
CCCCNC(=O)[C@H](CCCNC(=N)N)NS(=O)(=O)c1cccc2c(N(C)C)cccc12 [N^2 -dansyl-N-butyl-L-argininamide, reference compound]	75 mg/kg
COc1ccc2cc(S(=O)(=O)N[C@@H](CCCNC(=N)N)C(=O)N(CC(=O)O)Cc3ccccc3)cc(OC)c2c1 [Sample 10, N^2-(4,6-dimethoxy-2-naphthalenesulfonyl)-L-arginyl-N-benzylglycine]	> 1000 mg/kg

target: T1, thrombin (Bos taurus, UniProt P00735); assay: fibrinogen coagulation time (thrombin-induced); assay type: biochemical; conditions: bovine fibrinogen, thrombin 5 units/ml, borate saline buffer pH 7.4, 25° C; control 50-55 seconds; read-out: Concentration required to prolong the coagulation time by a factor of two
T1 construct: bovine fibrinogen as substrate
Procedure: Immediately after mixing, the reaction mixture was transferred from the ice bath to a bath maintained at 25° C. Coagulation times were taken as the period between the time of transference to the 25° C bath and the time of the first appearance of fibrin threads.

Structure (SMILES)	IC (2-fold clotting time)
COc1cccc2c(S(=O)(=O)N[C@@H](CCCNC(=N)N)C(=O)N(CC(=O)O)Cc3ccccc3)cccc12 [Sample 18, N^2-(5-methoxy-1-naphthalenesulfonyl)-L-arginyl-N-benzylglycine]	2 µM
